Earlier results on two compounds are cited in US20100029771A1, “TREATMENT OF ADDICTIVE DISORDERS” (priority 2008, published 2010).

The conditions of data set [1]: alcoholic subjects; each drug given individually.
For data set [2] the following is noted: clinical trials.
For data set [3] the following is noted: limited to the first months of treatment.

Structures are written as SMILES. A value given as a limit tells only on which side of the number the result lay.

As for `NCC(CC(=O)O)c1ccc(Cl)cc1` (stereo not shown) [baclofen, 4-amino-3-(4-chlorophenyl)butanoic acid], in data set [1], the effect on craving entry was “reduce craving”. The effect on anxiety entry in data set [2] (alcoholic and non-alcoholic subjects) was “reduce anxiety”. In addition, the side effect entry in data set [2] is recorded as “somnolence being an overwhelming side effect”.
Take `O=C1CC[C@@]2(O)[C@H]3Cc4ccc(O)c5c4[C@@]2(CCN3CC2CC2)[C@H]1O5` [naltrexone]: the “duration of benefits on alcohol craving and intake” value in data set [3] is given as ≤ 3 months.
